Laboratory results: US20250312474A1, “ANTHRACYCLINS AND CONJUGATES THEREOF” (priority 2022, published 2025)
Where two headings read alike, the source gives them in different places.

What was measured:
preclinical models = details: cited from earlier work
[1] = more potent than doxorubicin; cited from earlier work
JIMT-1 cells = assay: In vitro cytotoxicity of free payloads (resazurin cell viability, 3 days); type: cell-based, human; details: for IC50: Homo sapiens, JIMT-1, 72 h, read-out: IC50 JIMT-1 (HER2 1+); for IC50 JIMT-1 (HER2 1+): free payload, 3 days incubation, 10 pM to 100 nM
Protocol: (§1) SK-OV-3, NCI-N87, JIMT-1 and MDA-MB-231 cells were plated in 96-well plates (5000 cells/well) in RPMI-1640 GlutaMAX (Invitrogen) supplemented with 10% fetal bovine serum (FBS) (Invitrogen, 150 μL/well) and incubated overnight in a humidified atmosphere at 37° C. and 5% CO2. Compounds 6a, 6b, 6c, 6d and 6e were added in triplo in a square root of 10-fold dilution series to obtain a final concentration ranging from 1 pM to 10 nM (for SK-OV-3 and NCI-N87) or 10 pM to 100 nM (for JIMT-1 and MDA-MB-231) and a final volume of 200 μL/well. The cells were incubated for 3 days in a humidified atmosphere at 37° C. and 5% CO2. The culture medium was replaced by 0.01 mg/mL resazurin (Sigma Aldrich) in RPMI-1640 GlutaMAX supplemented with 10% FBS (200 μL/well). After 4 hours in a humidified atmosphere at 37° C. and 5% CO2 the fluorescence was detected with a fluorescence plate reader (Infinite® M1000 Tecan) at 560 nm excitation and 590 nm emission. The relative fluorescent units (RFU) were normalized to cell viability percentage by setting wells without cells at 0% viability and wells with untreated cells at 100% viability. Viability was plotted using Graphpad prism software (see FIG. 20).

NCI-N87 cells = assay: as above; type: cell-based; details: Homo sapiens, NCI-N87, 72 h, read-out: IC50 NCI-N87 (HER2 3+)
Protocol: as §1, with “Compounds 6a, 6b, 6c, 6d and 6e were added in triplo in a square root of 10-fold dilution series to obtain a final concentration ranging from 1 pM to 10 nM (for SK-OV-3 and NCI-N87) or 10 pM to 100 nM (for JIMT-1 and MDA-MB-231) and a final volume of 200 μL/well.” left out

MDA-MB-231 cells = assay: as above; type: cell-based; details: for IC50: Homo sapiens, MDA-MB-231, 72 h, read-out: IC50 MDA-MB-231 (HER2−); for IC50 MDA-MB-231 (HER2−): free payload, 3 days incubation, 10 pM to 100 nM
Protocol: as §1

SK-OV-3 cells = assay: as above; type: cell-based; details: Homo sapiens, SK-OV-3, 72 h, read-out: IC50 SK-OV-3 (HER2 3+)
Protocol: as §1

[2] = free payload, 3 days incubation, 1 pM to 10 nM

COc1cccc2c1C(=O)c1c(O)c3c(c(O)c1C2=O)C[C@@](O)(C(=O)CO)C[C@@H]3O[C@H]1C[C@H]2[C@H](O[C@@H]3[C@@H](OC)OCCN32)[C@H](C)O1 [PNU-159,682]
MED (preclinical models): 0.033 mg/kg | potency relative to doxorubicin [1]: > 1000 ×

COc1cccc2c1C(=O)c1c(O)c3c(c(O)c1C2=O)C[C@@](O)(C(=O)CO)C[C@@H]3O[C@H]1C[C@H]2[C@H](O[C@@H]3[C@@H](OCc4ccc(N=[N+]=[N-])cc4)OCCN32)[C@H](C)O1 [Compound 6e]
IC50 (JIMT-1 cells): 0.52 nM | IC50 (NCI-N87 cells): 0.795 nM | IC50 (MDA-MB-231 cells): 0.705 nM | IC50 (SK-OV-3 cells): 0.845 nM

COc1cccc2c1C(=O)c1c(O)c3c(c(O)c1C2=O)C[C@@](O)(C(=O)CO)C[C@@H]3O[C@H]1C[C@H]2[C@H](O[C@@H]3[C@@H](OCCN=[N+]=[N-])OCCN32)[C@H](C)O1 [Compound 6b]
IC50 JIMT-1 (HER2 1+) (JIMT-1 cells): no accurate IC50 value could be calculated | IC50 MDA-MB-231 (HER2−) (MDA-MB-231 cells): no accurate IC50 value could be calculated | IC50 (SK-OV-3 cells): 0.099 nM

COc1cccc2c1C(=O)c1c(O)c3c(c(O)c1C2=O)C[C@@](O)(C(=O)CO)C[C@@H]3O[C@H]1C[C@H]2[C@H](O[C@@H]3[C@@H](OC)OCCN32)[C@H](C)O1 [Compound 6a, reference compound]
IC50 JIMT-1 (HER2 1+) (JIMT-1 cells): no accurate IC50 value could be calculated | IC50 (NCI-N87 cells; [2]): 0.085 nM | IC50 MDA-MB-231 (HER2−) (MDA-MB-231 cells): no accurate IC50 value could be calculated | IC50 (SK-OV-3 cells; [2]): 0.028 nM

COc1cccc2c1C(=O)c1c(O)c3c(c(O)c1C2=O)C[C@@](O)(C(=O)CO)C[C@@H]3O[C@H]1C[C@H]2[C@H](O[C@@H]3[C@@H](OCc4ccccc4)OCCN32)[C@H](C)O1 [Compound 6d]
IC50 (JIMT-1 cells): 0.259 nM | IC50 (NCI-N87 cells): 0.339 nM | IC50 (MDA-MB-231 cells): 0.169 nM | IC50 (SK-OV-3 cells): 0.217 nM

COc1cccc2c1C(=O)c1c(O)c3c(c(O)c1C2=O)C[C@@](O)(C(=O)CO)C[C@@H]3O[C@H]1C[C@H]2[C@H](O[C@@H]3[C@@H](OC(C)C)OCCN32)[C@H](C)O1 [Compound 6c]
IC50 (JIMT-1 cells): 0.159 nM | IC50 (NCI-N87 cells): 0.416 nM | IC50 (MDA-MB-231 cells): 0.174 nM | IC50 (SK-OV-3 cells): 0.187 nM
